Experimental data as given in patent US20260297060A1, “COMPOUNDS FOR THE DEGRADATION OF MUTANT BRAF” (C4 THERAPEUTICS, INC., priority 2023, published 2026).
Where two headings read alike, the source gives them in different places.

Assays:
Type in all cases: in vivo, BALB/c nude mice
[1] = Example 7 pharmacokinetics assay for PKPD study (plasma, tumor, liver); details: mouse, po, 100 mg/kg, p.o., single dose
Method: For the PK and PD study, agents were administered to BALB/c nude mice bearing A375 human melanoma xenografts tumors. Dabrafenib, Compound 141, Compound 118, Compound 156, and Compound 180 were dosed p.o. once on day 1. Known BRAF inhibitor Dabrafenib was used as a positive control. Dabrafenib was dosed at 100 mg/kg. Compound 141, Compound 118, Compound 156, and Compound 180 were dosed at 10 mg/kg.
(§1) The plasma samples were collected at predetermined time points for PK analysis. The mice were euthanized at predetermined time points post the treatment. The blood samples were collected into the 1.5 mL Eppendorf tubes containing 15 μL of 0.5 M EDTA-K2. And then the anticoagulant blood samples were centrifuged at 2,500 g at 4° C. for 15 minutes. The plasma samples were separated into 2 aliquots. The 1st was used for PK analysis, and the 2nd served as backup. The samples were stored at −80° C. before bioanalysis.
The tumor samples were collected at predetermined time points for PK and WB analysis. The tumor was dissected out and split into 3 parts. The 1st part was used for PK analysis, the 2nd part was used for WB analysis and the last one served as backup for study. The samples were transferred into pre-labeled tubes and quickly froze in liquid nitrogen within 2 minutes after dissection. The samples were stored at −80° C. before bioanalysis.
(§2) Liver samples were collected at predetermined time points for PK analysis. The left lobe of the liver was dissected out and split into 2 parts. The 1st part was used for PK analysis and the 2nd part served as the backup for the study. The samples were transferred into pre-labeled tubes and quickly froze in liquid nitrogen within 2 minutes after dissection. The samples were stored at −80° C. before bioanalysis.
The harvested plasma and liver samples were processed for pharmacokinetics analysis by LC-MS/MS with a concentration range of 0.500-1000 ng/mL for Dabrafenib, Compound 118 and Compound 180 in plasma, 0.100~200 ng/ml for Dabrafenib in Liver and tumor homogenate, 50.0~50,000 ng/mL for Compound 141 in plasma and Liver homogenate, 1.00-1000 ng/ml for Compound 141 in tumor homogenate, 2.00~2000 ng/mL for Compound 118 and Compound 180 in Liver and 0.200~200 ng/ml in tumor homogenate, 1.00~2000 ng/mL for Compound 156 in plasma, 0.500-1000 ng/ml in liver and 0.500-1,000 ng/ml in tumor homogenate.

[2] = Example 9 pharmacokinetics assay for efficacy study Part I and II (plasma, liver); details: mouse, po, 100 mg/kg, p.o., QD × 14 days, 6 h following last treatment, ± SEM
Method: For efficacy study Part I, agents were tested in the A375 human melanoma xenografts. Compound 218 and Compound 157 were administered to BALB/c nude mice bearing A375 xenografts from day 0 and dosed twice a day (BID) for 14 days. Compound 218 and Compound 157 were dosed at 10 mg/kg via p.o.. Dabrafenib was administered from day 1 daily (QD) for 14 days and dosed at 100 mg/kg via p.o..
For efficacy study Part II, agents were tested in the A375 human melanoma xenografts model. Compound 133, Compound 144 and Compound 198 were administered to BALB/c nude mice bearing A375 xenografts from day 0 and dosed twice a day (BID) for 14 days. Compound 133, Compound 144 and Compound 198 were dosed at 10 mg/kg via p.o..
as §1, §2
The harvested plasma and liver samples were processed for pharmacokinetics analysis by LC-MS/MS with a concentration range of 1.00-1,000 ng/mL for Dabrafenib in plasma and liver homogenate, 10.0-10,000 ng/mL for Compound 218, Compound 157, Compound 133, Compound 144 and Compound 198 in plasma and liver homogenate.

[3] = tested on: A375 human melanoma cancer cell derived xenografts, intracranial; test: Example 12 efficacy study, intracranial A375-luciferase CNS model: survival; details: 35 mg/kg PO/QD; vehicle median 18 days
Method: For the efficacy study, agents were tested in A375 human melanoma cancer cell derived xenografts (CDX). This cell line was isolated from the primary melanoma of a person and is known to have a homozygous BRAF V600E mutation. The A375 tumor cells were maintained in vitro in DMEM medium supplemented with 10% fetal bovine serum and 1% Penicillin-Streptomycin at 37° C. in an atmosphere of 5% CO2 in air. The tumor cells were routinely subcultured twice weekly. The cells growing in an exponential growth phase were harvested and counted for tumor inoculation.
For this CNS study, A375 cells with a luciferase tag for tracking tumor cell signal, were injected intracranially into 6-8-week-old female BALB/c nude mice (Zhejiang Vital River Laboratory Animal Co., LTD. Beijing, China). The mice were anaesthetized, restrained, and sterilized prior to surgery. A sagittal cut was made above the anterior parietal and occipital bone with sterilized scalpel, the skull was unrevealed and cleaned with cotton bud, in this case the anterior fontanel could be available. A 2 mm hole was created to the right of the anterior fontanel and 0.5 mm ahead of the coronal on the skull with a cranial drill. Cell suspensions in 20% Matrigel were mixed and aspirated into injector carefully to avoid bubbles and wiped to avoid extracranial tumor genesis. The needle was inserted vertically into the cranial hole and the cell mixture was slowly injected for 2 minutes and held for another minute to decrease the drainage of the cell suspension. The wound was closed, and a subcutaneous injection of 5 mg/kg Meloxicam was given to relieve the pain and continued for 3 days. The mice were monitored closely until they woke up after the surgery. During the study, the care and use of animals was conducted in accordance with the regulations of the Association for Assessment and Accreditation of Laboratory Animal Care (AAALAC). After inoculation, the animals were checked daily for morbidity and mortality. At the time of routine monitoring, the animals would be checked for any effects of tumor growth and treatments on normal behavior such as mobility, food and water consumption, body weight gain/loss, eye/hair matting, and any other abnormal effect.
The administration of the test agents began three days after inoculation. CNS tumor-bearing mice were randomly assigned to groups of 8 mice and administered Compound 26 at 10 mg/kg orally (PO) twice a day (BID), Compound 141 at 10 mg/kg PO/BID, encorafenib at 35 mg/kg once a day orally, (PO/QD), or the vehicle alone PO/BID. Measurements for the presence of the A375 luciferase (CRL-1619-LUC2, ATCC, Manassas, VA, USA) cells within the CNS were done with IVIS Lumina III machine. Images were collected twice weekly to follow the growth of the models. The tumor-bearing mice were weighed and intraperitoneally administered luciferin (Perkin Elmer Inc-122799) at a dosage of 150 mg/kg. After 10 min, mice were pre-anesthetized with the mixture gas of oxygen and isoflurane. The bioluminescence value at 15 min post luciferin injection was recorded as the final value and plotted. The endpoint for individual mice was reached when the mouse body weight decreased by 20% when compared to their starting weight.

[4] = liver, read-out: Concentration in Liver (mean ± SEM)
[5] = plasma, read-out: Concentration in Plasma (mean ± SEM)
[6] = tumor, read-out: Concentration in Tumor (mean ± SEM)

| concentration at 6 h [1, 4] | concentration at 12 h [1, 4] | concentration at 1 h [1, 5] | concentration at 6 h [1, 5] | concentration at 12 h [1, 5] | concentration at 24 h [1, 5] | concentration at 1 h [1, 6] | concentration at 6 h [1, 6] | concentration at 12 h [1, 6] | concentration at 24 h [1, 6] | concentration at 6 h ([2]; liver, read-out: Mean Concentration in Liver) | concentration at 6 h ([2]; plasma, read-out: Mean Concentration in Plasma) | SMILES | median survival [3] |
| --- | --- | --- | --- | --- | --- | --- | --- | --- | --- | --- | --- | --- | --- |
| 2450 ± 737 ng/g | 1110 ± 453 ng/g | 7370 ± 865 ng/mL | 1140 ± 390 ng/mL | 336 ± 137 ng/mL | 3.88 ± 2.43 ng/mL | 9520 ± 2050 ng/g | 702 ± 341 ng/g | 242 ± 96 ng/g | 5.53 ± 0.951 ng/g | 1240 ± 162 ng/g | 410 ± 58.2 ng/mL | CC(C)(C)c1nc(-c2cccc(NS(=O)(=O)c3c(F)cccc3F)c2F)c(-c2ccnc(N)n2)s1 [Dabrafenib, dabrafenib, reference compound] | – |
| – | – | – | – | – | – | – | – | – | – | – | – | COC(=O)N[C@@H](C)CNc1nccc(-c2cn(C(C)C)nc2-c2cc(Cl)cc(NS(C)(=O)=O)c2F)n1 [Encorafenib, encorafenib, reference compound] | 46 days |
